# Test results published in patent US20110224297A1, “Methods of administering prostratin and structural analogs thereof” (priority 2008, published 2011).
# Assays:
# [1] = tested on: resting CD4+ T cells derived from HIV positive patients; test: Induction of HIV-1 expression in resting CD4+ T cells from HIV positive patients on HAART (p24, co-culture); type: cell-based, human
# Experimental: The ability of prostratin to induce HIV-1 expression in cultures of highly purified resting CD4+ T cells derived from six HIV positive patients on HAART therapy with undetectable plasma viral load (<50 copies/ml) and CD4 cell counts above 350 cells/mm^3 was evaluated. PBMCs were separated using Ficol Hypaque gradient and resting CD4+ T cells were purified using commercially available CD4+ T cell isolation kit (Miltenyi Biotec) Immediately after purification, resting CD4+ T cells were treated for 3 days with two antiretrovirals to which the patient had not previously been exposed. Antiretrovirals were used at concentrations 10 times the 50% inhibitory concentration for wild-type HIV-1 to ensure elimination of any actively replicating virus. Three days after in vitro incubation with antiretrovirals, cells were washed and incubated for 5 h, 24 h, or 48 h with prostratin (50-500 ng/ml), in the absence or presence of 1 mM valproic acid (sodium salt, SIGMA), 10 μg/ml PHA (SIGMA), 50 U IL-2/ml (AIDS depository of reagents, NIH), or in the absence of drugs. At the end of each incubation period, cells were co-cultured with CD8-depleted PBMCs from healthy donors. P24 was measured at days 0, 4, 7, 14, 21, 28, 35 and 42 days.
# [2] = tested on: latently infected ACH-2 cells; test: HIV expression (reverse transcriptase activity in supernatant) in latently infected ACH-2 cells; type: cell-based
# Experimental: The effect of prostratin on virus replication was assessed in latently infected ACH-2 and U1 cells by measuring the accumulation of reverse transcriptase activity in the supernatant of stimulated cells (Gustafson et al., 1992, J Med Chem 35(11): 1978-86).
# Briefly, 4×10^4 cells in 100 μl fresh medium were mixed with another 100 μl of medium with or without prostratin or PMA in a 96-well microtiter plate. Plates were incubated for 24-72 h at 37° C. Following incubation, supernatants were harvested, centrifuged (to remove any residual cells) and tested for reverse transcriptase activity as previously described (Gustafson et al., 1992, J Med Chem 35(11): 1978-86).
# In these experiments, two concentrations of cells were tested (40,000 and 100,000 cells/well). It is noteworthy that the basal levels of reverse transcriptase activities were much higher in ACH-2 cells than in U1 cells.
smiles,measurement,setting,value
"CC(=O)O[C@@]12C[C@@H](C)[C@@]3(O)[C@@H](C=C(CO)C[C@]4(O)C(=O)C(C)=C[C@@H]34)[C@@H]1C2(C)C [prostratin, 12-deoxyphorbol 13-acetate]",HIV-1 expression in resting T cells,[1]; 50 ng/ml,"HIV-1 activation events, although with lower frequency"
same,time of co-culture with CD8-depleted PBMC after which robust HIV replication was observed,[1]; 24 h with 150 ng/ml,2-4 weeks
same,HIV-1 expression in resting T cells,[1]; ex-vivo treatment for 24 h with 150 ng/ml,efficient activation of the latent reservoir
same,lowest dose to get a reliable increase in reverse transcriptase activity,[2],50 ng/mL
same,stimulation time at which sizeable reverse transcriptase activity is detected,[2],24 h
same,short incubation (pulsed stimulation) time leading to detectable reverse transcriptase activity,[2]; none after 1 h and 4 h,6 h
